Laboratory results reported in PubChem BioAssay AID1963869 (Molecular Pharmacology Branch, DTP, NCI, 2024).

Tested on: KRAS patient-derived spheroids with HUVEC/MSC, viability
Assay: Anticancer human tumor 323965-272-R-J2-PDC patient-derived pancreatic carcinoma cell line growth inhibition [KRAS2]
Settings: for IC50: curve of first compound; for viability, T/C: stronger effect = lower value
Text: Multicellular complex tumor spheroid response to RAS pathway inhibitors in combination with a targeted agents in patient-derived cell lines with oncogenic KRAS variants from multiple cancer types
A high-throughput screen of multi-cell type tumor spheroids was designed to identify active combinations of targeted small molecules and KRAS pathway inhibitors. Complex spheroids include a stromal component modeled by human endothelial cells (HUVEC) and fibroblasts modeled by human mesenchymal stem cells (MSCs). The concentration ranges selected for each drug and investigational agent were based upon clinically achievable concentrations if the clinical Cmax of the agent was known.
Compounds. The drugs and investigational agents: BI-3406 (NSC825286), BAY-293 (NSC824723), batoprotafib (TNO155; NSC825523), sotorasib (AMG 510; NSC818433), MRTX1257 (NSC819558), elimusertib (BAY 1895344; NSC800525), molibresib (GSK525762; NSC774829), temuterkib (LY3214996; NSC803410), venetoclax (NSC766270), alisertib (NSC759677), olaparib (NSC753686), talazoparib (NSC767125), erdafitinib (NSC781556), ipatasertib (NSC767898), cabozantinib (NSC761068), nintedanib (NSC756659), abemaciclib (NSC768073), docetaxel (NSC628503), trametinib (NSC758246), and sapanisertib (NSC764658) were obtained from the National Cancer Institute (NCI) Developmental Therapeutics Program Chemical Repository. The FDA-approved anticancer drug set is available from the Developmental Therapeutics Program. […] The stock solutions were prepared in dimethyl sulfoxide (DMSO, Sigma-Aldrich, St. Louis, MO, cat. D2650) at 800-fold the tested concentration and stored at -70 degrees C prior to their use. All drugs and investigational agents were tested over a range starting from a high concentration at or near the clinical Cmax and decreasing in half-log increments. If the clinical Cmax for an agent had not been determined, the highest concentration tested was 10 microM.
Cell Culture. All cells were maintained in an incubator at 37 degrees C and 5% CO2 with 95% humidity. The PDC lines were cultured according to standard operating procedures established by the NCI PDMR (https://pdmr.cancer.gov/sops/default.htm). Briefly, all PDCs were thawed and cultured in Matrigel-coated flasks prepared with a working solution of 1X Ham's F-12 nutrient mix, without supplementation (Invitrogen, Waltham, MA, cat. 11765054), 100 U/mL penicillin-streptomycin (Invitrogen, cat. 15140122), and 2.5% Matrigel (Corning Inc., Corning, NY, cat. 354248) for the first three passages. All PDCs were cultured in complete DMEM/F-12 media containing advanced DMEM/F-12 (Invitrogen, cat. 12634028), 4.9% defined fetal bovine serum, heat inactivated (HyClone Laboratories Inc., Logan, UT, cat. SH30070.03HI), 389 ng/mL hydrocortisone (Sigma-Aldrich, cat. H4001), 9.7 ng/mL human EGF recombinant protein (Invitrogen, cat. PHG0313), 23.4 microg/mL adenine (Sigma-Aldrich, cat. A2786), 97.3 U/mL penicillin-streptomycin (Invitrogen, cat. 15140122), 1.9 mM L-glutamine (Invitrogen, cat. 25030081), and 9.7 microM Y-27632 dihydrochloride (Tocris Bioscience, Bristol, United Kingdom, cat. 1254). The PDCs were cultured in complete DMEM/F12 media without 9.7 microM Y-27632 dihydrochloride for at least two passages prior to the screen. The established cell line HOP-62 was cultured in RPMI 1640 medium, HEPES (Invitrogen, cat. 22400105) with 10% defined fetal bovine serum (HyClone Laboratories Inc., cat. SH30070.03) and 2 mM L-glutamine (Invitrogen, cat. 25030081). The pooled donor HUVEC were cultured in endothelial cell growth medium 2 (PromoCell, Heidelberg, Germany, cat. C-22011) and the hMSC were cultured in mesenchymal stem cell growth medium 2 (PromoCell, cat. C-28009). For all experiments, HUVEC and hMSC were used at passages </=5, while the malignant cell lines were used at passages </=15. […]

[1] = second compound 0.1 µM, first compound 0.0316 µM
[2] = second compound 0.1 µM, first compound 0.1 µM
[3] = second compound 0.1 µM, first compound 0.316 µM
[4] = second compound 0.1 µM, first compound 1 µM
[5] = second compound 0.1 µM, first compound 3.16 µM
[6] = second compound 0.1 µM, first compound 10 µM
[7] = second compound 0.316 µM, first compound 0.0316 µM
[8] = second compound 0.316 µM, first compound 0.1 µM
[9] = second compound 0.316 µM, first compound 0.316 µM
[10] = second compound 0.316 µM, first compound 1 µM
[11] = second compound 0.316 µM, first compound 3.16 µM
[12] = second compound 0.316 µM, first compound 10 µM
[13] = second compound 1 µM, first compound 0.0316 µM
[14] = second compound 1 µM, first compound 0.1 µM
[15] = second compound 1 µM, first compound 0.316 µM
[16] = second compound 1 µM, first compound 1 µM
[17] = second compound 1 µM, first compound 3.16 µM
[18] = second compound 1 µM, first compound 10 µM
[19] = second compound 3.16 µM, first compound 0.0316 µM
[20] = second compound 3.16 µM, first compound 0.1 µM
[21] = second compound 3.16 µM, first compound 0.316 µM
[22] = second compound 3.16 µM, first compound 1 µM
[23] = second compound 3.16 µM, first compound 3.16 µM
[24] = second compound 3.16 µM, first compound 10 µM
[25] = second compound 10 µM, first compound 0.0316 µM
[26] = second compound 10 µM, first compound 0.1 µM
[27] = second compound 10 µM, first compound 0.316 µM
[28] = second compound 10 µM, first compound 1 µM
[29] = second compound 10 µM, first compound 3.16 µM
[30] = second compound 10 µM, first compound 10 µM
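Note: spheroids exposed to agents for 7 days.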
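Throughout, for viability, T/C: 100% = DMSO vehicle control viability.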

COC(=O)c1ccc2c(C(=Nc3ccc(N(C)C(=O)CN4CCN(C)CC4)cc3)c3ccccc3)c(O)[nH]c2c1 + C=CC(=O)N1CCN(c2nc(=O)n(-c3c(C)ccnc3C(C)C)c3nc(-c4c(O)cccc4F)c(F)cc23)C(C)C1
IC50 (second compound 0.1 µM): 1160 nM | IC50 (second compound 0.316 µM): 536 nM | IC50 (second compound 1 µM): 243 nM | IC50 (second compound 3.16 µM): 196 nM | IC50 (second compound 10 µM): < 31.6 nM | viability, T/C [1]: 53.3% | viability, T/C [2]: 55.6% | viability, T/C [3]: 53.7% | viability, T/C [4]: 50.7% | viability, T/C [5]: 42.6% | viability, T/C [6]: 19% | viability, T/C [7]: 56% | viability, T/C [8]: 52.4% | viability, T/C [9]: 52.6% | viability, T/C [10]: 46.8% | viability, T/C [11]: 28.4% | viability, T/C [12]: 16.6% | viability, T/C [13]: 57.9% | viability, T/C [14]: 57.6% | viability, T/C [15]: 48% | viability, T/C [16]: 28.2% | viability, T/C [17]: 21.4% | viability, T/C [18]: 16.8% | viability, T/C [19]: 58% | viability, T/C [20]: 56.6% | viability, T/C [21]: 46.4% | viability, T/C [22]: 27.9% | viability, T/C [23]: 22.1% | viability, T/C [24]: 13.8% | viability, T/C [25]: 43.1% | viability, T/C [26]: 32.9% | viability, T/C [27]: 29.6% | viability, T/C [28]: 18.8% | viability, T/C [29]: 17.8% | viability, T/C [30]: 12.5%

O=C(c1cc(Cc2n[nH]c(=O)c3ccccc23)ccc1F)N1CCN(C(=O)C2CC2)CC1 + C=CC(=O)N1CCN(c2nc(=O)n(-c3c(C)ccnc3C(C)C)c3nc(-c4c(O)cccc4F)c(F)cc23)C(C)C1
IC50 (second compound 0.1 µM): > 10000 nM | IC50 (second compound 0.316 µM): 7450 nM | IC50 (second compound 1 µM): 7830 nM | IC50 (second compound 3.16 µM): > 10000 nM | IC50 (second compound 10 µM): 1730 nM | viability, T/C [1]: 64.6% | viability, T/C [2]: 61.7% | viability, T/C [3]: 62.9% | viability, T/C [4]: 64.5% | viability, T/C [5]: 64.7% | viability, T/C [6]: 50.3% | viability, T/C [7]: 67.1% | viability, T/C [8]: 59.7% | viability, T/C [9]: 61.3% | viability, T/C [10]: 55.9% | viability, T/C [11]: 55.3% | viability, T/C [12]: 46.7% | viability, T/C [13]: 60.8% | viability, T/C [14]: 59.9% | viability, T/C [15]: 59.2% | viability, T/C [16]: 61.7% | viability, T/C [17]: 60.3% | viability, T/C [18]: 39.2% | viability, T/C [19]: 64.2% | viability, T/C [20]: 66.2% | viability, T/C [21]: 61.1% | viability, T/C [22]: 61% | viability, T/C [23]: 58.7% | viability, T/C [24]: 46.2% | viability, T/C [25]: 48.3% | viability, T/C [26]: 50.1% | viability, T/C [27]: 60.3% | viability, T/C [28]: 55.6% | viability, T/C [29]: 45% | viability, T/C [30]: 32%
